The record followed here is the supplement of paper PMC10307832.

Holding throughout (assay): relative viability (nuclei count vs DMSO), 5 days (fraction); higher = more cells survive
Compound in the assay “SGI-1776 + Alpelisib”: CN1CCC(CNc2ccc3ncc(-c4cccc(OC(F)(F)F)c4)n3n2)CC1 [SGI-1776] + Cc1nc(NC(=O)N2CCC[C@H]2C(N)=O)sc1-c1ccnc(C(C)(C)C(F)(F)F)c1 [Alpelisib] (partner 2 µM)
The gist of the method:
(§1)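 After 5 days of treatment, lung cancer cells in 1536-well plates were fixed and stained in a single step (final 0.05% Triton X-100, 1% formaldehyde, 1 ug/ml Hoechst) and their nuclei counted on 4× images. Treatment had been applied by pin tool the day after seeding as one drug alone or as a fixed anchor-drug dose with five library-drug doses (not always all listed) in √10 steps. Relative viability is the nuclei count of treated wells divided by that of vehicle wells, and values are medians of duplicate plates.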

Compound in the assay “Entinostat + Alpelisib”: Nc1ccccc1NC(=O)c1ccc(CNC(=O)OCc2cccnc2)cc1 [Entinostat] + Cc1nc(NC(=O)N2CCC[C@H]2C(N)=O)sc1-c1ccnc(C(C)(C)C(F)(F)F)c1 [Alpelisib] (partner 2 µM)
The procedure, abridged:
as §1

Compound in the assay “SGI-1776 + Crizotinib”: CN1CCC(CNc2ccc3ncc(-c4cccc(OC(F)(F)F)c4)n3n2)CC1 [SGI-1776] + C[C@@H](Oc1cc(-c2cnn(C3CCNCC3)c2)cnc1N)c1c(Cl)ccc(F)c1Cl [Crizotinib] (partner 1 µM)
The gist of the method:
as §1

Compound in assay [1]: C1COCCN1C2=NC(=NC3=C2OC4=C3C=CC=N4)C5=CC(=CC=C5)NC(=O)C6=CN=C(C=C6)N + Cc1nc(NC(=O)N2CCC[C@H]2C(N)=O)sc1-c1ccnc(C(C)(C)C(F)(F)F)c1 [Alpelisib] (partner 2 µM)
The procedure, abridged: as §1

Consider NCI-H520, for which the relative viability with SGI-1776 + Alpelisib (first compound 0.08 µM) was 0.928; in the assay with SGI-1776 + Alpelisib (first compound 0.8 µM), 0.94; with SGI-1776 + Alpelisib (first compound 2.53 µM), 0.914; with SGI-1776 + Alpelisib (first compound 8 µM) it was 0.759; with Entinostat + Alpelisib (first compound 0.02 µM), 0.836; with Entinostat + Alpelisib (first compound 0.06325 µM), 0.848. Besides, the relative viability with Entinostat + Alpelisib (first compound 0.2 µM) is 0.963; with Entinostat + Alpelisib (first compound 0.6325 µM) it was 0.764; with Entinostat + Alpelisib (first compound 2 µM), 0.451; in the assay with SGI-1776 + Crizotinib (first compound 0.08 µM), 0.773; with SGI-1776 + Crizotinib (first compound 0.8 µM), 0.828; with SGI-1776 + Crizotinib (first compound 2.53 µM) it was 0.728. Also, the relative viability was 0.473 in the assay with SGI-1776 + Crizotinib (first compound 8 µM); 0.914 in assay [1] (first compound 0.02 µM); 0.923 in assay [1] (first compound 0.06325 µM); 0.971 in assay [1] (first compound 0.2 µM); 1.02 in assay [1] (first compound 0.6325 µM); 0.406 in assay [1] (first compound 2 µM).
With NCI-H596, the relative viability with SGI-1776 + Alpelisib (first compound 0.08 µM) was 0.529; with SGI-1776 + Alpelisib (first compound 0.8 µM) it was 0.439; in the assay with SGI-1776 + Alpelisib (first compound 2.53 µM) it was 0.357; with SGI-1776 + Alpelisib (first compound 8 µM), 0.349; in the assay with Entinostat + Alpelisib (first compound 0.02 µM), 0.533; with Entinostat + Alpelisib (first compound 0.06325 µM), 0.496. Moreover, the relative viability stood at 0.272 with Entinostat + Alpelisib (first compound 0.2 µM); 0.411 in the assay with Entinostat + Alpelisib (first compound 0.6325 µM); 0.356 with Entinostat + Alpelisib (first compound 2 µM); 1.08 in the assay with SGI-1776 + Crizotinib (first compound 0.08 µM); 1.06 with SGI-1776 + Crizotinib (first compound 0.8 µM); 0.945 with SGI-1776 + Crizotinib (first compound 2.53 µM). For the same cell line, the relative viability with SGI-1776 + Crizotinib (first compound 8 µM) stood at 0.854; in assay [1] (first compound 0.02 µM) it was 0.497; in assay [1] (first compound 0.06325 µM) it was 0.51; in assay [1] (first compound 0.2 µM), 0.691; in assay [1] (first compound 0.6325 µM), 0.51; in assay [1] (first compound 2 µM), 0.394.
Take NCI-H647: the relative viability in the assay with SGI-1776 + Alpelisib (first compound 0.08 µM) came out at 1.31; in the assay with SGI-1776 + Alpelisib (first compound 0.8 µM) it was 1.15; with SGI-1776 + Alpelisib (first compound 2.53 µM) it was 1.1; in the assay with SGI-1776 + Alpelisib (first compound 8 µM), 0.558; with Entinostat + Alpelisib (first compound 0.02 µM) it was 1.09; in the assay with Entinostat + Alpelisib (first compound 0.06325 µM), 1.28. The relative viability with Entinostat + Alpelisib (first compound 0.2 µM) is 1.06; in the assay with Entinostat + Alpelisib (first compound 0.6325 µM), 0.419; with Entinostat + Alpelisib (first compound 2 µM), 0.11; with SGI-1776 + Crizotinib (first compound 0.08 µM), 1.16; with SGI-1776 + Crizotinib (first compound 0.8 µM) it was 0.842; in the assay with SGI-1776 + Crizotinib (first compound 2.53 µM) it was 0.992. Moreover, the relative viability in the assay with SGI-1776 + Crizotinib (first compound 8 µM) stood at 0.291; in assay [1] (first compound 0.02 µM), 1.21; in assay [1] (first compound 0.06325 µM) it was 1.33; in assay [1] (first compound 0.2 µM), 0.996; in assay [1] (first compound 0.6325 µM), 1.21; in assay [1] (first compound 2 µM) it was 0.356.
For the cell line NCI-H650, the relative viability in the assay with SGI-1776 + Alpelisib (first compound 0.08 µM) is 1.19; with SGI-1776 + Alpelisib (first compound 0.8 µM) it was 1.04; in the assay with SGI-1776 + Alpelisib (first compound 2.53 µM), 1.04; in the assay with SGI-1776 + Alpelisib (first compound 8 µM), 0.921; with Entinostat + Alpelisib (first compound 0.02 µM), 1.18; with Entinostat + Alpelisib (first compound 0.06325 µM) it was 1.13. Also, the relative viability stood at 1.03 in the assay with Entinostat + Alpelisib (first compound 0.2 µM); 0.763 with Entinostat + Alpelisib (first compound 0.6325 µM); 0.339 with Entinostat + Alpelisib (first compound 2 µM); 0.764 with SGI-1776 + Crizotinib (first compound 0.08 µM); 0.704 in the assay with SGI-1776 + Crizotinib (first compound 0.8 µM); 0.382 with SGI-1776 + Crizotinib (first compound 2.53 µM). The relative viability in the assay with SGI-1776 + Crizotinib (first compound 8 µM) turned out to be 0.37; in assay [1] (first compound 0.02 µM), 1.07; in assay [1] (first compound 0.06325 µM) it was 1.12; in assay [1] (first compound 0.2 µM) it was 1.06; in assay [1] (first compound 0.6325 µM), 1.04; in assay [1] (first compound 2 µM), 0.824.
Take NCI-H661: the relative viability in the assay with SGI-1776 + Alpelisib (first compound 0.08 µM) amounted to 0.81; in the assay with SGI-1776 + Alpelisib (first compound 0.8 µM), 1.06; with SGI-1776 + Alpelisib (first compound 2.53 µM) it was 0.592; in the assay with SGI-1776 + Alpelisib (first compound 8 µM), 0.479; with Entinostat + Alpelisib (first compound 0.02 µM), 0.733; in the assay with Entinostat + Alpelisib (first compound 0.06325 µM) it was 0.735. For the same cell line, the relative viability in the assay with Entinostat + Alpelisib (first compound 0.2 µM) worked out at 0.68; with Entinostat + Alpelisib (first compound 0.6325 µM) it was 0.856; with Entinostat + Alpelisib (first compound 2 µM), 0.683; in the assay with SGI-1776 + Crizotinib (first compound 0.08 µM), 0.932; in the assay with SGI-1776 + Crizotinib (first compound 0.8 µM), 1.02; with SGI-1776 + Crizotinib (first compound 2.53 µM) it was 1.03. Moreover, the relative viability with SGI-1776 + Crizotinib (first compound 8 µM) was 0.964; in assay [1] (first compound 0.02 µM), 0.703; in assay [1] (first compound 0.06325 µM), 0.698; in assay [1] (first compound 0.2 µM) it was 0.664; in assay [1] (first compound 0.6325 µM), 0.531; in assay [1] (first compound 2 µM), 0.728.
Consider NCI-H727, for which the relative viability is 0.75 with SGI-1776 + Alpelisib (first compound 0.08 µM); 0.532 in the assay with SGI-1776 + Alpelisib (first compound 0.8 µM); 0.655 with SGI-1776 + Alpelisib (first compound 2.53 µM); 0.538 in the assay with SGI-1776 + Alpelisib (first compound 8 µM); 0.708 with Entinostat + Alpelisib (first compound 0.02 µM); 0.669 with Entinostat + Alpelisib (first compound 0.06325 µM). The relative viability in the assay with Entinostat + Alpelisib (first compound 0.2 µM) was 0.545; in the assay with Entinostat + Alpelisib (first compound 0.6325 µM), 0.264; with Entinostat + Alpelisib (first compound 2 µM), 0.297; in the assay with SGI-1776 + Crizotinib (first compound 0.08 µM) it was 0.831; with SGI-1776 + Crizotinib (first compound 0.8 µM), 0.79; in the assay with SGI-1776 + Crizotinib (first compound 2.53 µM), 0.863. In addition, the relative viability in the assay with SGI-1776 + Crizotinib (first compound 8 µM) amounted to 0.48; in assay [1] (first compound 0.02 µM), 0.472; in assay [1] (first compound 0.06325 µM), 0.418; in assay [1] (first compound 0.2 µM) it was 0.51; in assay [1] (first compound 0.6325 µM), 0.693; in assay [1] (first compound 2 µM), 0.341.
Regarding NCI-H838, the relative viability in the assay with SGI-1776 + Alpelisib (first compound 0.08 µM) was 1.1; with SGI-1776 + Alpelisib (first compound 0.8 µM) it was 1.01; in the assay with SGI-1776 + Alpelisib (first compound 2.53 µM), 0.95; with SGI-1776 + Alpelisib (first compound 8 µM), 0.874; with Entinostat + Alpelisib (first compound 0.02 µM) it was 1.03; in the assay with Entinostat + Alpelisib (first compound 0.06325 µM), 1.15. For the same cell line, the relative viability with Entinostat + Alpelisib (first compound 0.2 µM) is 1.13; with Entinostat + Alpelisib (first compound 0.6325 µM), 0.72; with Entinostat + Alpelisib (first compound 2 µM), 0.301; in the assay with SGI-1776 + Crizotinib (first compound 0.08 µM) it was 0.885; with SGI-1776 + Crizotinib (first compound 0.8 µM) it was 0.854; with SGI-1776 + Crizotinib (first compound 2.53 µM) it was 0.689. Besides, the relative viability with SGI-1776 + Crizotinib (first compound 8 µM) was determined as 0.319; in assay [1] (first compound 0.02 µM), 1.12; in assay [1] (first compound 0.06325 µM) it was 0.945; in assay [1] (first compound 0.2 µM), 0.923; in assay [1] (first compound 0.6325 µM), 0.968; in assay [1] (first compound 2 µM) it was 0.524.
In the case of NCI-H1299, the relative viability came out at 1.11 in the assay with SGI-1776 + Alpelisib (first compound 0.08 µM); 1.01 in the assay with SGI-1776 + Alpelisib (first compound 0.8 µM); 1.07 in the assay with SGI-1776 + Alpelisib (first compound 2.53 µM); 1.08 with SGI-1776 + Alpelisib (first compound 8 µM); 1.09 with Entinostat + Alpelisib (first compound 0.02 µM); 1.02 with Entinostat + Alpelisib (first compound 0.06325 µM). In addition, the relative viability turned out to be 1.06 in the assay with Entinostat + Alpelisib (first compound 0.2 µM); 0.883 with Entinostat + Alpelisib (first compound 0.6325 µM); 0.815 with Entinostat + Alpelisib (first compound 2 µM); 0.969 in the assay with SGI-1776 + Crizotinib (first compound 0.08 µM); 0.969 with SGI-1776 + Crizotinib (first compound 0.8 µM); 0.917 with SGI-1776 + Crizotinib (first compound 2.53 µM). For the same cell line, the relative viability was determined as 0.807 with SGI-1776 + Crizotinib (first compound 8 µM); 1.1 in assay [1] (first compound 0.02 µM); 1.11 in assay [1] (first compound 0.06325 µM); 1.09 in assay [1] (first compound 0.2 µM); 1.06 in assay [1] (first compound 0.6325 µM); 0.857 in assay [1] (first compound 2 µM).
